In patent publication US20240308987A1, “SMALL MOLECULE INHIBITOR AGAINST NASOPHARYNGEAL CARCINOMA, PREPARATION METHOD AND APPLICATION THEREOF” (SHENZHEN BAY LABORATORY, priority 2021, published 2024):

Tested on: C666-1 cells
Experiment: C666-1 Cell Viability Assay (Resazurin cytotoxicity test)
Type: cell-based
Details: Homo sapiens, C6661, EB virus-positive C666-1 cells, 72 hours treatment, 100-0.78 micromole/L, read-out: Inhibitory Rate
Summary of the method: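 EBV-positive nasopharyngeal carcinoma C666-1 cells, 5×10^3 per well, were grown 24 h, then exposed to compound for 72 h at 37 °C (8-point two-fold dilutions, final 100–0.78 µM). Viability was read by resazurin reduction fluorescence after 3 h; EC50 came from the fitted inhibition curve.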

SMILES | EC50 [µM]
O=C(Cc1ccc(OC2CN(c3cccc(C(=O)O)c3-c3ccc4cc[nH]c4c3)C2)cc1)Nc1cccnc1 [Example 44a, 2-(1H-indol-6-yl)-3-(3-(4-(2-oxo-2-(pyridin-3-ylamino)ethyl)phenoxy)azetidin-1-yl) benzoic acid] | 1 to 10
O=C(Nc1ccc(OC2CN(c3cccc(C(=O)NO)c3-n3cccc3)C2)cc1)c1cccnc1 [Example 31b, N-(4-((1-(3-(hydroxycarbamoyl)-2-(1H-pyrrol-1-yl)phenyl)azetidin-3-yl)oxy)phenyl) nicotinamide] | < 1
COC(=O)c1cccc(N2CC(Oc3ccc(COc4ccccn4)cc3)C2)c1-n1cccc1 [Example 12, methyl 3-(3-(4-((pyridin-2-yloxy)methyl)phenoxy)azetidin-1-yl)-2-(1H-pyrrol-1-yl) benzoate] | > 50
COC(=O)c1cccc(N2CC(Oc3ccc(NC(=O)Cc4cccnc4)cc3)C2)c1Cl [Example 55, methyl 2-chloro-3-(3-(4-(2-(pyridin-3-yl)acetamido)phenoxy)azetidin-1-yl) benzoate] | 1 to 10
O=C(Cc1ccc(OC2CN(c3cccc(C(=O)O)c3)C2)cc1)Nc1cccnc1 [Example 43a, 3-(3-(4-(2-oxo-2-(pyridin-3-ylamino)ethyl)phenoxy)azetidin-1-yl) benzoic acid] | 1 to 10
COC(=O)c1cccc(N2CC(Oc3ccc(COc4cccnc4)cc3)C2)c1-c1cccc(Cl)c1 [Example 18, methyl 3′-chloro-6-(3-(4-((pyridin-3-yloxy)methyl)phenoxy)azetidin-1-yl)-[1,1′-biphenyl]-2-carboxylate] | 1 to 10
COC(=O)c1cccc(C#Cc2ccc(NC(=O)Nc3cccnc3)cc2)c1-c1cccc(OCCO)c1 [Example 57, methyl 3′-(2-hydroxyethoxy)-6-((4-(3-(pyridin-3-yl)ureido)phenyl)ethynyl)-[1,1′-biphenyl]-2-carboxylate] | 1 to 10
O=C(Cc1cccnc1)Nc1ccc(OC2CN(c3cccc(C(=O)O)c3)C2)cc1 [Example 49a, 3-(3-(4-(2-(pyridin-3-yl)acetamido)phenoxy)azetidin-1-yl) benzoic acid] | 10 to 50
O=C(O)c1cccc(N2CC(Oc3ccc(COCc4cccnc4)cc3)C2)c1-n1cccc1 [Example 27a, 3-(3-(4-((pyridin-3-ylmethoxy)methyl)phenoxy)azetidin-1-yl)-2-(1H-pyrrol-1-yl) benzoic acid] | > 50
O=C(Nc1ccc(OC2CN(c3cccc(C(=O)O)c3-n3cccc3)C2)cc1)Nc1cccnc1 [Example 34a, 3-(3-(4-(3-(pyridin-3-yl)ureido)phenoxy)azetidin-1-yl)-2-(1H-pyrrol-1-yl) benzoic acid] | 1 to 10
O=C(O)c1cccc(N2CC(Oc3ccc(OCc4cccnc4)cc3)C2)c1-n1cccc1 [Example 24a, 3-(3-(4-(pyridin-3-ylmethoxy)phenoxy)azetidin-1-yl)-2-(1H-pyrrol-1-yl) benzoic acid] | 10 to 50
Cc1cc(OC2CN(c3cccc(C(=O)O)c3-n3cccc3)C2)ccc1COc1cccnc1 [Example 15a, 3-(3-(3-methyl-4-((pyridin-3-yloxy)methyl)phenoxy)azetidin-1-yl)-2-(1H-pyrrol-1-yl) benzoic acid] | 10 to 50
O=C(Cc1cccnc1)Nc1ccc(C#Cc2cccc(C(=O)O)c2-c2ccccc2)cc1 [Example 62a, 6-((4-(2-(pyridin-3-yl)acetamido)phenyl)ethynyl)-[1,1′-biphenyl]-2-carboxylic acid] | < 1
O=C(Nc1ccc(OC2CN(c3cccc(C(=O)O)c3-n3cccc3)C2)cc1)Nc1cncc(F)c1 [Example 46a, 3-(3-(4-(3-(5-fluoropyridin-3-yl)ureido)phenoxy)azetidin-1-yl)-2-(1H-pyrrol-1-yl) benzoic acid] | 1 to 10
O=C(Nc1ccc(OC2CN(c3cccc(C(=O)NO)c3-n3cccc3)C2)cc1)Nc1cccnc1 [Example 34b, N-hydroxy-3-(3-(4-(3-(pyridin-3-yl)ureido)phenoxy)azetidin-1-yl)-2-(1H-pyrrol-1-yl) benzamide] | < 1
O=C(O)c1cccc(N2CC(Oc3ccc(CNc4cccnc4)cc3)C2)c1-n1cccc1 [Example 23a, 3-(3-(4-((pyridin-3-ylamino)methyl)phenoxy)azetidin-1-yl)-2-(1H-pyrrol-1-yl) benzoic acid] | 10 to 50
COC(=O)c1cccc(N2CC(Oc3ccc(COc4ccn(C)n4)cc3)C2)c1-n1cccc1 [Example 32, methyl 3-(3-(4-(((1-methyl-1H-pyrazol-3-yl)oxy)methyl)phenoxy)azetidin-1-yl)-2-(1H-pyrrol-1-yl) benzoate] | > 50
CNC(=O)c1cccc(N2CC(Oc3ccc(NC(=O)Nc4cccnc4)cc3)C2)c1-c1ccccc1 [Example 42c, N-methyl-6-(3-(4-(3-(pyridin-3-yl)ureido)phenoxy)azetidin-1-yl)-[1,1′-biphenyl]-2-carboxamide] | < 1
O=C(O)c1cccc(N2CC(Oc3ccc(CCc4cccnc4)cc3)C2)c1-n1cccc1 [Example 29a, 3-(3-(4-(2-(pyridin-3-yl)ethyl)phenoxy)azetidin-1-yl)-2-(1H-pyrrol-1-yl) benzoic acid] | > 50

SMILES | EC50 [µM]
COC(=O)c1cccc(N2CC(Oc3ccc(COc4cncc(C)c4)cc3)C2)c1-n1cccc1 [Example 3, methyl 3-(3-(4-((5-methylpyridin-3-yloxy)methyl)phenoxy)azetidin-1-yl)-2-(1H-pyrrol-1-yl) benzoate] | > 50
Cc1ccncc1OCc1ccc(OC2CN(c3cccc(C(=O)O)c3-n3cccc3)C2)cc1 [Example 2a, 3-(3-(4-((4-methylpyridin-3-yloxy)methyl)phenoxy)azetidin-1-yl)-2-(1H-pyrrol-1-yl) benzoic acid] | > 50
O=C(c1cccc(N2CC(Oc3ccc(COc4cccnc4)cc3)C2)c1-n1cccc1)N1CCCC1 [Example 1f, (3-(3-(4-((pyridin-3-yloxy)methyl)phenoxy)azetidin-1-yl)-2-(1H-pyrrol-1-yl)phenyl)(pyrrolidin-1-yl) methanone] | 1 to 10
O=C(Nc1ccc(OC2CN(c3cccc(C(=O)O)c3-c3cccc(Cl)c3)C2)cc1)Nc1cccc(C(F)(F)F)c1 [Example 37a, 3′-chloro-6-(3-(4-(3-(3-(trifluoromethyl)phenyl)ureido)phenoxy)azetidin-1-yl)-[1,1′-biphenyl]-2-carboxylic acid] | > 50
COC(=O)c1cccc(C#Cc2ccc(NC(=O)Nc3cccnc3)c(O)c2)c1-c1ccccc1 [Example 22, methyl 6-((3-hydroxy-4-(3-(pyridin-3-yl)ureido)phenyl)ethynyl)-[1,1′-biphenyl]-2-carboxylate] | < 1
COC(=O)c1cccc(N2CC(Oc3ccc(COc4cccnc4)c(Cl)c3)C2)c1-n1cccc1 [Example 19, methyl 3-(3-(3-chloro-4-((pyridin-3-yloxy)methyl)phenoxy)azetidin-1-yl)-2-(1H-pyrrol-1-yl) benzoate] | 10 to 50
O=C(Cc1cccnc1)Nc1ccc(OC2CN(c3cccc(C(=O)NO)c3-c3ccccc3)C2)cc1 [Example 45b, N-hydroxy-6-(3-(4-(2-(pyridine-3-yl)acetamido)phenoxy)azetidin-1-yl)-[1,1′-biphenyl]-2-carboxamide] | < 1
c1cncc(OCc2ccc(OC3CN(c4ccccc4-n4cccc4)C3)cc2)c1 [Example 1g, 3-((4-((1-(2-(1H-pyrrole-1-yl)phenyl)azetidin-3-yl)oxy)benzyl)oxy) pyridine] | 10 to 50
COC(=O)c1cccc(N2CC(Oc3ccc(CNc4cccnc4)cc3)C2)c1-c1cccc(Cl)c1 [Example 38, methyl 3′-chloro-6-(3-(4-((pyridin-3-ylamino)methyl)phenoxy)azetidin-1-yl)-[1,1′-biphenyl]-2-carboxylate] | 10 to 50
COC(=O)c1cccc(N2CC(Oc3ccc(Oc4ccncc4)cc3)C2)c1-n1cccc1 [Example 26, methyl 3-(3-(4-(pyridin-4-yloxy)phenoxy)azetidin-1-yl)-2-(1H-pyrrol-1 - yl) benzoate] | 1 to 10
COC(=O)c1cccc(N2CC(Oc3ccc(NC(=O)Cc4cccnc4)c(F)c3)C2)c1-n1cccc1 [Example 52, methyl 3-(3-(3-fluoro-4-(2-(pyridin-3-yl)acetamido)phenoxy)azetidin-1-yl)-2-(1H-pyrrol-1-yl) benzoate] | < 1
O=C(O)c1cccc(N2CC(Oc3ccc(COc4cccnc4)cc3)C2)c1-c1ccccc1 [Example 17a, 6-(3-(4-((pyridin-3-yloxy)methyl)phenoxy)azetidin-1-yl)-[1,1′-biphenyl]-2-carboxylic acid] | 1 to 10
O=C(Cc1ccc(OC2CN(c3cccc(C(=O)NO)c3)C2)cc1)Nc1cccnc1 [Example 43b, N-hydroxy-3-(3-(4-(2-oxo-2-(pyridin-3-ylamino)ethyl)phenoxy)azetidin-1-yl) benzamide] | < 1
CNC(=O)c1cccc(N2CC(Oc3ccc(CC(=O)Nc4cccnc4)cc3)C2)c1-c1ccccc1 [Example 40c, N-methyl-6-(3-(4-(2-oxo-2-(pyridin-3-ylamino)ethyl)phenoxy)azetidin-1-yl)-[1,1′-biphenyl]-2-carboxamide] | 1 to 10
COC(=O)c1cccc(N2CC(Oc3ccc(NC(=O)Cc4cccnc4)cc3)C2)c1C [Example 53, methyl 2-methyl-3-(3-(4-(2-(pyridin-3-yl)acetamido)phenoxy)azetidin-1-yl) benzoate] | 10 to 50
Cn1ccc(OCc2ccc(OC3CN(c4cccc(C(=O)O)c4-n4cccc4)C3)cc2)n1 [Example 32a, 3-(3-(4-(((1-methyl-1H-pyrazol-3-yl)oxy)methyl)phenoxy)azetidin-1-yl)-2-(1H-pyrrol-1-yl) benzoic acid] | > 50
O=C(Nc1ccc(OC2CN(c3cccc(C(=O)O)c3)C2)cc1)Nc1cccnc1 [Example 50a, 3-(3-(4-(3-(pyridin-3-yl)ureido)phenoxy)azetidin-1-yl) benzoic acid] | 1 to 10
O=C(NO)c1cccc(N2CC(Oc3ccc(CNc4cccnc4)cc3)C2)c1-c1cccc(Cl)c1 [Example 38b, 3′-chloro-N-hydroxy-6-(3-(4-((pyridin-3-ylamino)methyl)phenoxy)azetidin-1-yl)-[1,1′-biphenyl]-2-carboxamide] | < 1
